The subject of assay [1] is K^+ transport, P3 membrane fractions from whole brains of Swiss mice. Kind of assay: K^+ transport (^86 Rb uptake) in P3 membrane fractions. The assay is classed as biochemical. As to conditions: for K^+ Transport Relative Potency: relative to amodiaquin; for concentration inhibiting K^+ transport (selection criterion): submillimolar concentrations. On the procedure:
To obtain the data set forth in Table I, K^+ -transport was measured using P3 membrane fractions prepared from whole brains of Swiss mice. […] The resulting supernatant was centrifuged at 17,000 g for 15 minutes, and the supernatant from the latter was centrifuged at 70,000 g for 1 hour to pellet the P3 fraction. The P3 pellet was washed by resuspension in 50 mM Tris-citrate (pH 7.3). After 10 minutes on ice, the suspension was centrifuged at 70,000 g for 10 minutes. This washing procedure was repeated twice using distilled water for the resuspension. […] The suspension (2-3 mg protein/ml) was stabilized on ice for 1 hour prior to use. Uptake of ^86 Rb (radioactive) was used to assess the K^+ -transport of the P3 articles. Many published experiments have shown the ^86 Rb, with a half-life 36 times longer than ^42 K, is a suitable tracer for K. Rb permeates neuronal K channels as well as does K itself.
After filtration of the samples, the filters were washed rapidly three times with 10^-3 M triethanolamine containing 0.1M RbCl (non-radioactive) and counted in ACS liquid scintillation cocktail (Amersham). In calculating the results, the uptake found in the presence of 0.1M non-radioactive RbCl was subtracted from that found in the presence of various concentrations of the test substances in the presence of 10^-6 M ^86 RbCl alone. […] Between 0.2 and 0.5 mg/ml usually were employed. The results were normalized by calculating them as percentages of the uptake observed with 10^-6 M ^86 RbCl alone.

The target in assay [2] is T1, Acetylcholinesterase (Electrophorus electricus, UniProt O42275).
T1 construct: prepared from the electric organ of the electric eel; from tissue; host or cells: electric organ of the electric eel
T1 sequence (O42275 24-633): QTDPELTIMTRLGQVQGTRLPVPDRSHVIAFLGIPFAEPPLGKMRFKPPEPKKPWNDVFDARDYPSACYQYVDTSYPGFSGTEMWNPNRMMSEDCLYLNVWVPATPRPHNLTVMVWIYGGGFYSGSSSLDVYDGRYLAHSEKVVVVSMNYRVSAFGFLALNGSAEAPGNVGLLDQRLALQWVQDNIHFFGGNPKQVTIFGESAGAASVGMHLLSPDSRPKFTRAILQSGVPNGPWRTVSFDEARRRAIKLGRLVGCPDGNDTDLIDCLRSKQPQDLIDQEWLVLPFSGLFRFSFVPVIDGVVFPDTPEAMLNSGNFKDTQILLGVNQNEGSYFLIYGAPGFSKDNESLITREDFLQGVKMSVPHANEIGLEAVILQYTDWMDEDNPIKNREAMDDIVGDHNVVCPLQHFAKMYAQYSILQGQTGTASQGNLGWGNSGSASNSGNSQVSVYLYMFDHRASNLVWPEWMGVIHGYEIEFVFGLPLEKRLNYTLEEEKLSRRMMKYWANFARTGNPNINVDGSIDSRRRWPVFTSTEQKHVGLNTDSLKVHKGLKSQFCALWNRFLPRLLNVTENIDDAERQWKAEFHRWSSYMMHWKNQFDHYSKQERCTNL
Kind of assay: Acetylcholinesterase activity, acetylthiocholine substrate, colorimetric (Ellman). As to conditions: for Acetylcholinesterase Activity Relative Potency: relative to amodiaquin. The assay is classed as biochemical, electric eel. On the procedure: Cholinesterase activity reported in Table I was measured by a standard procedure. The enzyme employed was prepared from the electric organ of the electric eel. It is known to have the same properties as the enzyme of mammalian nervous tissue. Acetylthiocholine was used as substrate.
Inhibitory potency of substances was determined by measuring enzyme activity in the absence and presence of varying concentrations of the test substances.
(In general: DTNB colorimetry detects thiols as they appear.)

Consider `CCN(CC)CCCC(C)Nc1ccnc2cc(Cl)ccc12` (stereo not shown) [Chloroquine, chloroquine], for which, in assay [1], the “K^+ Transport Rank Order” value was found to be 4, the “K^+ transport inhibition compared with amodiaquin (in words)” value was “approximately one-twentieth as active”, the “K^+ Transport Relative Potency” value turned out to be 0.067 and the “concentration inhibiting K^+ transport (selection criterion)” value was ≤ 10^-3 M. In assay [2], the “Acetylcholinesterase Activity Rank Order” value was 5(4), the “cholinesterase inhibitory potency compared with amodiaquin (in words)” value is recorded as “less than one-thousandth” and the “Acetylcholinesterase Activity Relative Potency” value turned out to be 0.001.
`CCN(CC)Cc1cc(Nc2ccnc3cc(Cl)ccc23)ccc1O` [Amodiaquin, amodiaquin]: in assay [1], the “K^+ Transport Rank Order” value is listed as 1 and the “K^+ transport inhibition compared with amodiaquin (in words)” value was “ranked first”. In assay [2], the “cholinesterase inhibitory potency compared with amodiaquin (in words)” value was “most effective cholinesterase inhibitor of this group”.
Regarding `CCN(CC)CCCC(C)Nc1c2ccc(Cl)cc2nc2ccc(OC)cc12` (stereo not shown) [Quinacrine, quinacrine], in assay [1], the “K^+ Transport Rank Order” value amounted to 3, the “K^+ transport inhibition compared with amodiaquin (in words)” value is “approximately one-half”, the “K^+ Transport Relative Potency” value was 0.44 and the “concentration inhibiting K^+ transport (selection criterion)” value was ≤ 10^-3 M. In addition, in assay [2], the “Acetylcholinesterase Activity Rank Order” value is recorded as 4(5), the “cholinesterase inhibitory potency compared with amodiaquin (in words)” value is on record as “less than one-thousandth” and the “Acetylcholinesterase Activity Relative Potency” value stood at 0.001.
With `Nc1c2ccccc2nc2ccccc12` [9-aminoacridine], in assay [1], the “K^+ Transport Rank Order” value was determined as 2 and the “K^+ transport inhibition compared with amodiaquin (in words)” value is given as “approximately one-half”.

Values taken from US4831033A (City of Hope, priority 1988, dated 1989).
